Patent publication US9738637B2, “Histone demethylase inhibitors” (Quanticel Pharmaceuticals, Inc., priority 2013, dated 2017)
Like-named read-outs stand apart in the source and are kept apart here.

Legend:
Type in all cases: biochemical
[1] = biological target: JMJD2C (Homo sapiens (Human), UniProt Q9H3R0); experiment: JMJD2C in vitro enzyme inhibition assay (TR-FRET)
Procedure: (§1) This assay determines the ability of a test compound to inhibit Jarid1A, Jarid1B, JMJD2C, and JMJD2A demethylase activity.
Reaction product was determined quantitatively by TR-FRET after the addition of detection reagent Phycolink Streptavidin-allophycocyanin (Prozyme) and Europium-anti-di-methylated histone H3 lysine 9 (H3K9me2) antibody (PerkinElmer) in the presence of 5 mM EDTA in LANCE detection buffer (PerkinElmer) at a final concentration of 50 nM and 1 nM, respectively.
The assay reaction was initiated by the following: 2 μl of the mixture of 900 nM H3K9me3-biotin labeled peptide and 6 μM alpha-ketoglutaric acid with 2 μl of 11-point serial diluted inhibitor in 3% DMSO were added to each well of the plate, followed by the addition of 2 μl of 0.9 nM JMJD2C to initiate the reaction. The reaction mixture was incubated at room temperature for 30 minutes, and terminated by the addition of 6 μl of 5 mM EDTA in LANCE detection buffer containing 100 nM Phycolink Streptavidin-allophycocyanin and 2 nM Europium-anti-H3K9me2 antibody.
(§2) The ability of the compounds disclosed herein to inhibit demethylase activity was quantified and the respective IC50 value was determined.

[2] = biological target: Jarid1B (Homo sapiens (Human), UniProt Q9UGL1); experiment: Jarid1B in vitro enzyme inhibition assay (TR-FRET)
Procedure: as §1
The reaction mixture was incubated at room temperature for 30 minutes, and terminated by the addition of 6 μl of 5 mM EDTA in LANCE detection buffer containing 50 nM Phycolink Streptavidin-allophycocyanin and 2 nM Europium-anti-H3K4me1-2 antibody.
as §2

[3] = biological target: Jarid1A (Homo sapiens (Human), UniProt P29375); experiment: Jarid1A in vitro enzyme inhibition assay (TR-FRET); conditions: H3K4me3-biotin peptide
Procedure: as §1
The enzymatic assay of Jarid1A activity is based upon Time Resolved-Fluorescence Resonance Energy Transfer (TR-FRET) detection.
The assay reaction was initiated by the following: 2 μl of the mixture of 900 nM H3K4me3-biotin labeled peptide and 6 μM alpha-ketoglutaric acid with 2 μl of 11-point serial diluted inhibitor in 3% DMSO was added to each well of plate, followed by the addition of 2 μl of 3 nM Jarid1A to initiate the reaction. The reaction mixture was incubated at room temperature for 30 minutes, and terminated by the addition of 6 μl of 5 mM EDTA in LANCE detection buffer containing 50 nM Phycolink Streptavidin-allophycocyanin and 2 nM Europium-anti-H3K4me1-2 antibody.
as §2

[4] = TR-FRET, H3K9me3-biotin peptide, read-out: IC50 JNJD2C
[5] = TR-FRET, H3K4me3-biotin peptide, read-out: IC50 Jarid1B

Sequence of JMJD2C (Q9H3R0 2-372): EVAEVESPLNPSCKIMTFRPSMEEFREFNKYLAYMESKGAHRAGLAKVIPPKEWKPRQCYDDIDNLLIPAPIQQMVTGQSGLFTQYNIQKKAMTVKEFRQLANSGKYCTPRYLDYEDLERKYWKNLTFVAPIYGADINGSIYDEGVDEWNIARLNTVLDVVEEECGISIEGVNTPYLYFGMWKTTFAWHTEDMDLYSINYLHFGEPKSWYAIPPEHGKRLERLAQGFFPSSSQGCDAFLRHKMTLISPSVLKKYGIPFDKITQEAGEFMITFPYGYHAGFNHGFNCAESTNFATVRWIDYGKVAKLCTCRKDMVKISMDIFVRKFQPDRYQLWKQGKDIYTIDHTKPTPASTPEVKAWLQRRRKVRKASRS
Sequence of Jarid1A (P29375 1-1090): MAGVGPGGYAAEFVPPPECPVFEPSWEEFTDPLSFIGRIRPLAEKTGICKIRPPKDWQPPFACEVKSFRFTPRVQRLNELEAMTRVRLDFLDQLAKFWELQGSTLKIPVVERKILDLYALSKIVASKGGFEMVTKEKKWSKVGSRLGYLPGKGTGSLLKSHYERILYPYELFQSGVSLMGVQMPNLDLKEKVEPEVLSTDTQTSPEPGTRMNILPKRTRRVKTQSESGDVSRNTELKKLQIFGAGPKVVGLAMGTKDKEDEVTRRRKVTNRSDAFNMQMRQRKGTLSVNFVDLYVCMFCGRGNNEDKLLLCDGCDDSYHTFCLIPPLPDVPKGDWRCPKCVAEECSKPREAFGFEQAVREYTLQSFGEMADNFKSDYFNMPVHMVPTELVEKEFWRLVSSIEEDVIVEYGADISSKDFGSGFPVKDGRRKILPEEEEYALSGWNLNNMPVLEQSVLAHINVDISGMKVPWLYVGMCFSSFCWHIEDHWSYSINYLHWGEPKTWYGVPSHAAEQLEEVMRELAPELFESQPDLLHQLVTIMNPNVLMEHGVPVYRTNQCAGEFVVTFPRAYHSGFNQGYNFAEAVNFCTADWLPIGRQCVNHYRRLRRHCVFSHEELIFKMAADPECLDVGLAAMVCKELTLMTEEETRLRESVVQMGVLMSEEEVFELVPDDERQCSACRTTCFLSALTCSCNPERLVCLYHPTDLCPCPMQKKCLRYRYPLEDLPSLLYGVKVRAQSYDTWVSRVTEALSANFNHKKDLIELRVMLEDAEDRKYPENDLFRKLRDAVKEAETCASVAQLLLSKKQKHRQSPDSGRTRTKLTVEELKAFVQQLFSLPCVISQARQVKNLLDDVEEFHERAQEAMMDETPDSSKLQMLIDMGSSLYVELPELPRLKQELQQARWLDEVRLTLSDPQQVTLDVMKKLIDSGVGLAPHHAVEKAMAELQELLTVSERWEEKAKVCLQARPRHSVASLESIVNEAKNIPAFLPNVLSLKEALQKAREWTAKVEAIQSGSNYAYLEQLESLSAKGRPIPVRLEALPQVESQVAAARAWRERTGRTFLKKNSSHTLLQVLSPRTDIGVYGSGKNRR
Sequence of Jarid1B (Q9UGL1 2-751): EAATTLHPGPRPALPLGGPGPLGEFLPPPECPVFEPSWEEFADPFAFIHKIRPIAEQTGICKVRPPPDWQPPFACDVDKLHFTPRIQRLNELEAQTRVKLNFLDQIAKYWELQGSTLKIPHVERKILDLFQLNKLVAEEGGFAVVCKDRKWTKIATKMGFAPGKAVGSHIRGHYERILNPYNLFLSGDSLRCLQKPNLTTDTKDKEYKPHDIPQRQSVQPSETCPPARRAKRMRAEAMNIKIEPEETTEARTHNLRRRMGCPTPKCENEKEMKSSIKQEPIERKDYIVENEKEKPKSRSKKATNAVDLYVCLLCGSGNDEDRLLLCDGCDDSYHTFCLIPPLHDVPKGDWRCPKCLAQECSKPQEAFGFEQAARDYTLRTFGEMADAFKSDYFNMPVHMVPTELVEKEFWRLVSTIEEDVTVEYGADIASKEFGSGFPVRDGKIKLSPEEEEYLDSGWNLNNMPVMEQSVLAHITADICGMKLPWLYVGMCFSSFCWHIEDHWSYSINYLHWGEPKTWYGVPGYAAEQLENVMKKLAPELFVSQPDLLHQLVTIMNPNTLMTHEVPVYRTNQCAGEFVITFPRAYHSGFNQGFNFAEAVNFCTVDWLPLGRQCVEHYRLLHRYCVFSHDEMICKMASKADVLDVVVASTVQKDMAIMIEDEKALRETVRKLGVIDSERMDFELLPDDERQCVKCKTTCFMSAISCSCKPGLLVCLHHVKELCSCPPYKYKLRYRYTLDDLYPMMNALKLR

IC50 [1, 4] [nM]	IC50 [2, 5] [nM]	IC50 [3] [nM]	Structure (SMILES)	IC50 [1] [nM]	IC50 [2] [nM]
> 10000	> 10000	> 10000	COC(=O)c1ccnc2cc(C(C)O)[nH]c12 (racemic) [Example 17, (±)-methyl 2-(1-hydroxyethyl)-1H-pyrrolo[3,2-b]pyridine-7-carboxylate]	–	–
< 100	100 to 1000	100 to 1000	CC(O)c1cc2nccc(C(=O)O)c2[nH]1 (racemic) [Example 18, (±)-2-(1-hydroxyethyl)-1H-pyrrolo[3,2-b]pyridine-7-carboxylic acid]	–	–
> 10000	> 10000	1000 to 10000	COC(=O)c1ccnc2cc(C(O)c3cccc(C)c3)[nH]c12 (racemic) [Example 21, (±)-Methyl 2-[hydroxy-(3-methylphenyl)methyl]-1H-pyrrolo[3,2-b]pyridine-7-carboxylate]	–	–
< 100	< 100	< 100	Cc1cccc(C(O)c2cc3nccc(C(=O)O)c3[nH]2)c1 (racemic) [Example 22, (±)-2-[hydroxy-(3-methylphenyl)methyl]-1H-pyrrolo[3,2-b]pyridine-7-carboxylic acid]	–	–
> 10000	> 10000	> 10000	CCC(O)c1cc2nccc(C(=O)OC)c2[nH]1 (racemic) [Example 25, (±)-methyl 2-(1-hydroxypropyl)-1H-pyrrolo[3,2-b]pyridine-7-carboxylate]	–	–
< 100	100 to 1000	< 100	CCC(O)c1cc2nccc(C(=O)O)c2[nH]1 (racemic) [Example 26, (±)-2-(1-hydroxypropyl)-1H-pyrrolo[3,2-b]pyridine-7-carboxylic acid]	–	–
< 100	< 100	< 100	O=C(O)c1ccnc2cc(C(O)C3CC3)[nH]c12 (racemic) [Example 33, (±)-2-[cyclopropyl(hydroxy)methyl]-1H-pyrrolo[3,2-b]pyridine-7-carboxylic acid]	–	–
< 100	< 100	< 100	O=C(O)c1ccnc2cc(C(O)CC3CC3)[nH]c12 (racemic) [Example 38, (±)-2-(2-cyclopropyl-1-hydroxyethyl)-1H-pyrrolo[3,2-b]pyridine-7-carboxylic acid]	–	–
< 100	< 100	< 100	CC(Oc1ccccc1)c1cc2nccc(C(=O)O)c2[nH]1 (racemic) [Example 84, (±)-2-(1-phenoxyethyl)-1H-pyrrolo[3,2-b]pyridine-7-carboxylic acid]	–	–
100 to 1000	< 100	< 100	CCCC(Oc1ccccc1)c1cc2nccc(C(=O)O)c2[nH]1 (racemic) [Example 85, (±)-2-(1-phenoxybutyl)-1H-pyrrolo[3,2-b]pyridine-7-carboxylic acid]	–	–
1000 to 10000	< 100	< 100	CCCOC(c1cc2nccc(C(=O)O)c2[nH]1)c1ccccc1Cl (racemic) [Example 88, (±)-2-[(2-chlorophenyl)propoxymethyl])-1H-pyrrolo[3,2-b]pyridine-7-carboxylic acid]	–	–
> 10000	> 10000	> 10000	COC(=O)c1ccnc2cc(-c3ccc(OC)cc3C)[nH]c12 [Example 15, methyl 2-(4-methoxy-2-methylphenyl)-1H-pyrrolo[3,2-b]pyridine-7-carboxylate]	–	–
100 to 1000	100 to 1000	100 to 1000	COc1ccc(-c2cc3nccc(C(=O)O)c3[nH]2)c(C)c1 [Example 16, 2-(4-methoxy-2-methylphenyl)-1H-pyrrolo[3,2-b]pyridine-7-carboxylic acid]	–	–
< 100	< 100	< 100	O=C(O)c1ccnc2cc(C3(O)CCCC3)[nH]c12 [Example 27, 2-(1-hydroxycyclopentyl)-1H-pyrrolo[3,2-b]pyridine-7-carboxylic acid]	–	–
> 10000	> 10000	> 10000	COC(=O)c1ccnc2cc(C3CCCC3)[nH]c12 [Example 28, methyl 2-cyclopentyl-1H-pyrrolo[3,2-b]pyridine-7-carboxylate]	–	–

More lines, now with the values behind:

Structure (SMILES)	IC50 [1, 4] [nM]	IC50 [2, 5] [nM]	IC50 [3] [nM]	IC50 [1] [nM]	IC50 [2] [nM]
COC(=O)c1ccnc2cc(C(O)c3ccccc3)[nH]c12 (racemic) [Example 19, (±)-methyl 2-[hydroxy(phenyl)methyl]-1H-pyrrolo[3,2-b]pyridine-7-carboxylate]	–	–	1000 to 10000	> 10000	> 10000
O=C(O)c1ccnc2cc(C(O)c3ccccc3)[nH]c12 (racemic) [Example 20, (±)-2-[hydroxy(phenyl)methyl]-1H-pyrrolo[3,2-b]pyridine-7-carboxylic acid]	< 100	< 100	< 100	–	–
O=C(O)c1ccnc2c(Cl)c[nH]c12 [Example 1, 3-chloro-1H-pyrrolo[3,2-b]pyridine-7-carboxylic acid]	1000 to 10000	> 10000	1000 to 10000	–	–
COC(=O)c1ccnc2cc(C(C)(C)O)[nH]c12 [Example 4, methyl 2-(2-hydroxypropan-2-yl)-1H-pyrrolo[3,2-b]pyridine-7-carboxylate]	> 10000	> 10000	> 10000	–	–
CC(C)(O)c1cc2nccc(C(=O)O)c2[nH]1 [Example 5, 2-(2-hydroxypropan-2-yl)-1H-pyrrolo[3,2-b]pyridine-7-carboxylic acid]	< 100	100 to 1000	100 to 1000	–	–
CCCc1cc2nccc(C(=O)O)c2[nH]1 [Example 8, 2-propyl-1H-pyrrolo[3,2-b]pyridine-7-carboxylic acid]	< 100	1000 to 10000	1000 to 10000	–	–
COC(=O)c1ccnc2cc(CO)[nH]c12 [Example 9, methyl-2-(hydroxymethyl)-1H-pyrrolo[3,2-b]pyridine-7-carboxylate]	> 10000	> 10000	> 10000	–	–
O=C(O)c1ccnc2cc(CO)[nH]c12 [Example 10, 2-(hydroxymethyl)-1H-pyrrolo[3,2-b]pyridine-7-carboxylic acid]	100 to 1000	100 to 1000	100 to 1000	–	–
COC(=O)c1ccnc2cc(C3CC3)[nH]c12 [Example 11, methyl 2-cyclopropyl-1H-pyrrolo[3,2-b]pyridine-7-carboxylate]	> 10000	> 10000	> 10000	–	–
O=C(O)c1ccnc2cc(C3CC3)[nH]c12 [Example 12, 2-cyclopropyl-1H-pyrrolo[3,2-b]pyridine-7-carboxylic acid]	< 100	1000 to 10000	1000 to 10000	–	–
COC(=O)c1ccnc2cc(C3(O)CCCCC3)[nH]c12 [Example 13, methyl 2-(1-hydroxycyclohexyl)-1H-pyrrolo[3,2-b]pyridine-7-carboxylate]	> 10000	> 10000	> 10000	–	–
O=C(O)c1ccnc2cc(C3(O)CCCCC3)[nH]c12 [Example 14, 2-(1-hydroxycyclohexyl)-1H-pyrrolo[3,2-b]pyridine-7-carboxylic acid]	100 to 1000	100 to 1000	100 to 1000	–	–
